# Laboratory results published in patent US8481459B2, “Chemical inhibitors of ethylene biosynthesis” (Academia Sinica, priority 2010, dated 2013).
# System: gene expression in etiolated eto1-4 seedlings
# Experiment: Transcriptional profiling (ATH1 GeneChip microarray) of etiolated eto1-4 seedlings
# Assay type: in vivo, Arabidopsis thaliana
# Method: For chemical treatments, seeds were sown on 0.5×MS agar medium supplemented with 10 μM chemicals (AVG, compounds 9393, 9370, and 7303) or DMSO (as control). Arabidopsis seeds were stratified in the dark at 4° C. for 4 days, then germinated in the dark for 3 days at 22° C. Approximately 2,000 etiolated seedlings of the wild type or eto1-4 were used to collect tissues for preparation of total RNA in each microarray experiment with Arabidopsis ATH1 GeneChip (Affymetrix). Extraction of RNA followed an established protocol (Chang, et al. (1993) Plant Mol. Biol. Rep. 11, 113-117). Total RNA (10 μg) was used to prepare biotinylated cRNA for hybridization to ATH1 GeneChip in the experiments disclosed herein. Experiments were repeated by 2 independent biological duplicates, and candidate genes present in both experiments were selected for further analysis. The MASS method was used for data analysis and normalization by all sample medium. Candidate genes were selected by the following criteria. First, genes with 1.5-fold differential expression between the wild type and eto1-4 were selected as the master gene pool, which was then used for comparison in treatments with AVG and individual exemplary compounds. Data were presented in hierarchical clustering and Venn diagram format. Agilent GeneSpring GX and Bioconductor software were used to analyze the expression profile data. Gene Ontology descriptions were generated by GeneSpring GX and further referred to the TAR GO database. Raw data are available in the GEO database (http://www.ncbi.nlm.nih.gov/geo) with Accession no. GSE20897.
# The filtered and normalized expression data set from 22810 probes on the ATH1 Genechip was used for hierarchical clustering of gene expression profiles for comparison between AVG and the exemplary invention compounds in eto1-4. It was identified that 1,446 genes show at least 1.5-fold difference in expression between the WT and eto1-4 and used them as the master gene pool for clustering analysis (FIG. 7A). […] These genes likely contribute to the etiolated phenotype of eto1-4 by responding to elevated endogenous ethylene. To determine whether the exemplary compounds have specific r overlapping functions with AVG to suppress the eto1-4 phenotype, genes that are regulated by individual exemplary invention compounds and AVG for Venn diagram analysis were clustered (FIG. 7B). More than 63% of genes (356/561 for compound 9393; 389/561 for compound 9370; 399/561 for compound 7303; FIG. 7B) with expression associated with AVG were co-regulated by the exemplary invention compounds, which indicates an overlap function in suppression of the ethylene phenotype in eto1-4. […] Next genes co-regulated by all of the exemplary invention compounds and AVG were examined by performing a clustering analysis using the co-regulated genes identified in FIG. 7B: 356 (compound 9393 vs AVG), 389 (compound 9370 vs AVG) and 399 genes (compound 7303 vs AVG). It was uncovered that 276 genes were co-regulated by all of the exemplary invention compounds and AVG (FIG. 7C and Table 2). On the basis of GO descriptions generated by Gene Spring GX and TAIR database, the 276 genes were divided into subgroups related to their biological functions (Table 2). […] In addition, stress- and pathogenesis-related genes were among the co-regulated genes, possibly because ethylene is involved in both biotic and abiotic stresses.
# Genes (1446 non-redundant loci) were selected by 1.5-fold differential expression between eto1-4 and WT as the master pool for analysis. These genes were used for comparison between chemical treatments by AVG and the exemplary invention compounds. The finalized 276 genes that are co-regulated by AVG and all of the exemplary invention compounds are shown. Locus ID also present in Nemhauser et al. (Nemhauser, et al. (2006) Cell 126, 467-475).
# [1] = of 1446 genes differentially expressed between WT and eto1-4, 10 μM
# [2] = ratio eto1-4 treated to eto1-4 (no treatment)
smiles,measurement,setting,value
COc1ccc(C2CC(=O)c3cnc(Nc4ccccc4)nc3C2)cc1 (centres unmarked) [Compound 7303],number of genes co-regulated with AVG,"of 561 genes associated with AVG, 10 μM",399 genes
same,number of genes regulated (expression reverted close to WT),[1],650 genes
same,percentage of genes regulated (expression reverted close to WT),[1],45.0%
same,"number of genes regulated specifically, not related to AVG treatment","of all genes regulated by the compound (629, 728, 650), 10 μM",251 genes
same,"Signal Fold Change AT1G03457, unknown biological function",[2],3.04
same,"Signal Fold Change AT1G03660, unknown biological function",[2],1.59
same,Signal Fold Change AT1G05010 ACC oxidase,[2],0.30
same,Signal Fold Change AT1G05760 jacalin lectin protein,[2],3.70
same,Signal Fold Change AT1G06720 expressed protein,[2],1.26
same,"Signal Fold Change AT1G07280, unknown biological function",[2],0.37
same,Signal Fold Change AT1G07560 leucine-rich repeat protein kinase,[2],1.99
same,Signal Fold Change AT1G08650 phosphoenolpyruvate carboxylase kinase,[2],3.40
same,Signal Fold Change AT1G08990 glycogenin glucosyltransferase,[2],2.60
same,Signal Fold Change AT1G09530 phytochrome interacting factor 3,[2],0.29
same,Signal Fold Change AT1G10760 starch excess protein (SEX1),[2],0.43
same,"Signal Fold Change AT1G13430, response to cytokinin stimulus, sulfotransferase protein",[2],0.34
same,Signal Fold Change AT1G14540 anionic peroxidase,[2],0.42
same,Signal Fold Change AT1G15380 lactoylglutathione lyase,[2],2.99
same,"Signal Fold Change AT1G17970, unknown biological function",[2],2.35
same,Signal Fold Change AT1G18880 proton-dependent oligopeptide transport (POT) protein,[2],2.51
same,"Signal Fold Change AT1G20190, cell wall organization and biogenesis, expansin (EXP11)",[2],0.43
same,Signal Fold Change AT1G22740 Ras-related protein (RAB7),[2],3.52
same,"Signal Fold Change AT1G23060, unknown biological function",[2],0.35
same,"Signal Fold Change AT1G26930, unknown biological function",[2],0.40
same,Signal Fold Change AT1G27380 p21-rho-binding domain-containing protein,[2],2.14
same,"Signal Fold Change AT1G29520, unknown biological function",[2],2.27
same,"Signal Fold Change AT1G30750, unknown biological function",[2],2.87
same,Signal Fold Change AT1G31710 copper amine oxidase,[2],5.43
same,Signal Fold Change AT1G32410 vacuolar protein sorting 55 protein,[2],1.75
same,Signal Fold Change AT1G32560 late embryogenesis abundant group 1 domain-containing protein,[2],1.89
same,"Signal Fold Change AT1G33470, unknown biological function",[2],2.38
same,"Signal Fold Change AT1G33790, unknown biological function",[2],0.21
same,"Signal Fold Change AT1G34040, unknown biological function",[2],2.17
same,"Signal Fold Change AT1G35350, unknown biological function",[2],4.37
same,"Signal Fold Change AT1G35612, unknown biological function",[2],3.19
same,"Signal Fold Change AT1G42470, unknown biological function",[2],4.79
same,"Signal Fold Change AT1G44800, unknown biological function",[2],2.25
same,Signal Fold Change AT1G44830 AP2-containing transcription factor,[2],0.38
same,Signal Fold Change AT1G48480 leucine-rich repeat trans-membrane protein kinase,[2],3.43
same,Signal Fold Change AT1G49660 expressed protein,[2],0.47
same,Signal Fold Change AT1G50560 cytochrome P450,[2],2.50
same,Signal Fold Change AT1G52830 auxin-responsive protein,[2],4.43
same,Signal Fold Change AT1G56010 transcription activator NAC1,[2],2.97
same,"Signal Fold Change AT1G56020, unknown biological function",[2],0.49
same,"Signal Fold Change AT1G58070, unknown biological function",[2],2.37
same,"Signal Fold Change AT1G59590, unknown biological function",[2],3.94
same,Signal Fold Change AT1G59740 proton-dependent oligopeptide transport (POT) protein,[2],0.32
same,Signal Fold Change AT1G62290 aspartyl protease protein,[2],0.38
same,Signal Fold Change AT1G62510 lipid transfer protein,[2],2.20
same,"Signal Fold Change AT1G62620, unknown biological function",[2],3.52
same,Signal Fold Change AT1G64200 V-ATPase E subunit,[2],2.73
same,"Signal Fold Change AT1G65510, unknown biological function",[2],4.19
same,"Signal Fold Change AT1G65920, unknown biological function",[2],0.36
same,Signal Fold Change AT1G66230 myb transcription factor (MYB20),[2],3.14
same,Signal Fold Change AT1G67030 zinc finger (C2H2 type) protein,[2],10.77
same,"Signal Fold Change AT1G68230, unknown biological function",[2],2.59
same,Signal Fold Change AT1G68520 zinc finger (B-box type) protein,[2],1.15
same,Signal Fold Change AT1G69570 Dof-type zinc finger-containing protein,[2],6.31
same,Signal Fold Change AT1G70210 cyclin delta-1,[2],3.72
same,Signal Fold Change AT1G70850 Bet v I allergen protein,[2],22.18
same,Signal Fold Change AT1G70890 major latex protein,[2],5.05
same,Signal Fold Change AT1G71030 myb transcription factor (MYB2),[2],8.09
same,"Signal Fold Change AT1G71740, unknown biological function",[2],3.04
same,Signal Fold Change AT1G72230 plastocyanin like protein,[2],2.98
same,Signal Fold Change AT1G73220 sugar transporter protein,[2],5.76
same,Signal Fold Change AT1G73300 serine carboxypeptidase S10 protein,[2],1.69
same,Signal Fold Change AT1G73310 serine carboxypeptidase S10 protein,[2],4.07
same,Signal Fold Change AT1G73330 protease inhibitor,[2],31.27
same,Signal Fold Change AT1G73590 auxin efflux carrier protein,[2],2.03
same,"Signal Fold Change AT1G73640, small GTPase mediated signal transduction, Ras-related GTP-binding protein",[2],2.12
same,Signal Fold Change AT1G73830 bHLH protein,[2],0.20
same,"Signal Fold Change AT1G75500, unknown biological function",[2],3.18
same,"Signal Fold Change AT1G76220, unknown biological function",[2],4.28
same,"Signal Fold Change AT1G76500, photomorphogenesis, DNA-binding protein",[2],0.38
same,Signal Fold Change AT1G76540 cell division control protein,[2],2.97
same,"Signal Fold Change AT1G76790, unknown biological function",[2],3.71
same,Signal Fold Change AT1G78240 dehydration-responsive protein,[2],0.54
same,Signal Fold Change AT1G80380 phosphoribulokinase,[2],2.20
same,"Signal Fold Change AT2G01910, microtubule nucleation, microtubule associated protein (MAP65/ASE1) protein",[2],2.92
same,Signal Fold Change AT2G02820 myb transcription factor (MYB88),[2],4.90
same,Signal Fold Change AT2G02850 plantacyanin,[2],0.15
same,Signal Fold Change AT2G16580 auxin-responsive protein,[2],2.29
same,"Signal Fold Change AT2G16990, unknown biological function",[2],3.14
same,Signal Fold Change AT2G19590 ACC oxidase,[2],0.28
same,"Signal Fold Change AT2G19970, unknown biological function",[2],3.39
same,"Signal Fold Change AT2G20080, unknown biological function",[2],5.75
same,"Signal Fold Change AT2G20670, unknown biological function",[2],4.29
same,"Signal Fold Change AT2G21820, unknown biological function",[2],1.33
same,Signal Fold Change AT2G21880 Ras-related GTP-binding protein,[2],4.62
same,Signal Fold Change AT2G22860 phytosulfokines 2 (PSK2),[2],2.10
same,Signal Fold Change AT2G24150 expressed protein (response to hormone stimulus),[2],1.90
same,Signal Fold Change AT2G25900 zinc finger (CCCH-type) protein,[2],1.73
same,Signal Fold Change AT2G26070 expressed protein (response to ethylene stimulus),[2],0.28
same,Signal Fold Change AT2G26440 pectinesterase protein,[2],0.27
same,Signal Fold Change AT2G26740 epoxide hydrolase,[2],0.26
same,Signal Fold Change AT2G27140 heat shock protein,[2],2.74
same,"Signal Fold Change AT2G27370, unknown biological function",[2],2.51
same,"Signal Fold Change AT2G28305, unknown biological function",[2],2.57
same,"Signal Fold Change AT2G28410, unknown biological function",[2],2.79
same,Signal Fold Change AT2G29340 short-chain dehydrogenase,[2],0.39
same,"Signal Fold Change AT2G29440, toxin catabolic process, glutathione S-transferase",[2],0.26
same,Signal Fold Change AT2G30360 CBL-interacting protein kinase 11 (CIPK11),[2],3.63
same,Signal Fold Change AT2G33380 calcium-binding RD20 protein,[2],0.22
same,"Signal Fold Change AT2G33990, unknown biological function",[2],2.69
same,"Signal Fold Change AT2G34300, unknown biological function",[2],0.39
same,Signal Fold Change AT2G34500 cytochrome P450,[2],8.32
same,"Signal Fold Change AT2G34510, unknown biological function",[2],2.21
same,"Signal Fold Change AT2G34700, unknown biological function",[2],0.31
same,Signal Fold Change AT2G35300 late embryogenesis abundant group 1 domain-containing protein,[2],2.86
same,Signal Fold Change AT2G35710 glycogenin glucosyltransferase,[2],2.25
same,Signal Fold Change AT2G36350 protein kinase,[2],0.54
same,"Signal Fold Change AT2G36410, unknown biological function",[2],3.05
same,Signal Fold Change AT2G37130 peroxidase 21,[2],2.23
same,"Signal Fold Change AT2G38760, unknown biological function",[2],5.36
same,"Signal Fold Change AT2G38790, unknown biological function",[2],3.21
same,Signal Fold Change AT2G39010 aquaporin,[2],1.95
same,"Signal Fold Change AT2G39310, unknown biological function",[2],3.40
same,"Signal Fold Change AT2G39980, unknown biological function",[2],0.25
same,Signal Fold Change AT2G40420 amino acid transporter,[2],3.56
same,"Signal Fold Change AT2G41090, unknown biological function",[2],0.11
same,"Signal Fold Change AT2G41230, unknown biological function",[2],0.05
same,"Signal Fold Change AT2G42320, unknown biological function",[2],0.54
same,Signal Fold Change AT2G43050 pectinesterase protein,[2],3.42
same,Signal Fold Change AT2G43535 trypsin inhibitor,[2],6.32
same,Signal Fold Change AT2G44110 seven transmembrane MLO protein,[2],0.43
same,Signal Fold Change AT2G44130 kelch repeat containing F-box protein,[2],4.62
same,Signal Fold Change AT2G47510 fumarate hydratase,[2],0.48
same,Signal Fold Change AT2G47550 pectinesterase protein,[2],0.49
same,"Signal Fold Change AT2G48030, unknown biological function",[2],2.22
same,Signal Fold Change AT3G04010 glycosyl hydrolase,[2],3.80
same,"Signal Fold Change AT3G05990, signal transduction, phosphodiesterase leucine-rich repeat protein",[2],2.33
same,"Signal Fold Change AT3G09020, unknown biological function",[2],3.42
same,Signal Fold Change AT3G09780 protein kinase,[2],0.40
same,"Signal Fold Change AT3G10080, unknown biological function",[2],2.14
same,Signal Fold Change AT3G10340 phenylalanine ammonia-lyase,[2],2.63
same,"Signal Fold Change AT3G11550, unknown biological function",[2],2.97
same,"Signal Fold Change AT3G12030, DNA repair, expressed protein",[2],2.06
same,Signal Fold Change AT3G12500 basic endocexemplary inase,[2],3.58
same,"Signal Fold Change AT3G13980, unknown biological function",[2],6.58
same,Signal Fold Change AT3G14370 protein kinase,[2],0.36
